Columns and labels:
[1] = system: LX-2 cells (human hepatic stellate cells); test: Expression of marker genes for fibrosing in LX-2 cells (quantitative real time PCR); assay type: cell-based; conditions: 5 μM, co-cultured 48 hours, vs DMSO, standardized by GAPDH, FIG. 1
Protocol: LX-2 cells (human hepatic stellate cells) (sigma-aldrich, reference document: Gut 2005, 54 (1), 142-151) were seeded in 12-well tissue culture plates (5×10^4 cells/well) and cultured in Dulbecco's Modified Eagle's Medium (high glucose) (Thermo Fisher Scientific) together with 10% FBS (Fetal Bovine Serum) and 100× penicillin-streptomycin-glutamine (PSG) in a 5% CO2 humidified incubator at 37° C. After 48 hours, the cells were stimulated with dimethyl sulfoxide (DMSO), Compound (II), and Compound (III) (5 μM) (final concentration of DMSO was 0.02%) and co-cultured for another 48 hours. Thereafter, the cells were lysed using a lysis buffer (MACHEREY-NAGEL GmbH & Co. KG).
(§1) Total RNA of LX-2 cells was extracted using NucleoSpin RNA Plus kit (Takara Bio) according to the product protocol. Purified RNA was reverse transcribed using High-Capacity cDNA RT Kits (Thermo Fisher Scientific) according to the product protocol. PCR was performed using TB Green Premix Ex Taq II (Takara Bio) and monitored with a LightCycler96 (Roche Life Science). The number of transcripts was standardized by the number of GAPDHs, which are housekeeping genes.

LX-2 cells = test: Immunostaining of αSMA and CollagenI in LX-2 cells; assay type: cell-based, human; conditions: 3 μM, vs DMSO group, FIG. 2
Protocol: LX-2 cells were cultured in the same manner as in Example 1, except that the concentration of Compound (II) was changed to 3 μM.
LX-2 cells were fixed in Mildform (registered trademark) 10N (FUJIFILM Wako Pure Chemical Corporation) at room temperature for 10 minutes and washed with PBS. Membranes were permeabilized using 0.2% Triton X-100. The cells were blocked at room temperature for one hour using 5% skim milk or 0.3% BSA/PBS. After washing with PBS, αSMA (Dako), CollagenI (Abcam), and Hoechst33342 (Sigma-Aldrich) were each added as a first antibody, and the mixture was reacted overnight at 4° C. On the next day, the cells were washed with PBS and then reacted with Invitrogen Alexa Fluor (theromo Fisher) as a second antibody. The cells were observed under a fluorescence microscope (Keyence BZ-X810).

[2] = system: quiescent hepatic stellate cell-like cells (qHSC-like cells); test: Expression of marker genes for fibrosing in quiescent hepatic stellate cell-like cells derived from human iPS cells (quantitative real time PCR); assay type: cell-based; conditions: 1 or 2 μM, 4 hours of incubation, FIG. 3
Protocol: Quiescent hepatic stellate cell-like cells (qHSC-like cells) were induced by the methods described in Koui et al., Stem Cell Reports 2021, PCT/JP2020/006147, and PCT/JP2016/58411. qHSC-like cells derived from ACTA2-RFP […] iPS cells were seeded in a collagen-coated 12-well plate at a density of 7×10^4 cells/well in Stempro-34 SFM medium (Gibco medium, theromo Fisher) supplemented with Y27632 (10 μM) and 100×PSG. After 24 hours of culture, Compound (II) was dissolved in Stempro-34 SFM medium (100×PSG), and then the solution was added such that the final concentration of Compound (II) was 1 or 2 μM. After 4 hours of incubation, the cells were lysed, and total RNA was extracted using NucleoSpin RNA Plus kit (Takara Bio).
as §1, with “derived from iPS cell-derived qHSC” for “of LX-2 cells”

[3] = system: mouse model of liver fibrosis; test: Mouse model of liver fibrosis (thioacetamide): liver immunohistochemistry and quantitative real time PCR; assay type: in vivo, C57BL/6J mice; conditions: TAA mouse, 20 mg/kg subcutaneously every 24 hours for 14 days
Protocol: Seven-week-old C57BL/6J mice were purchased from CLEA Japan, Inc. (Tokyo, Japan). All animals were reared in a standard specific pathogen-free room in the animal facility of the Institute for Quantitative Biosciences, University of Tokyo. For a mouse model of liver fibrosis, thioacetamide (TAA) was administered together with drinking water (0.06% v/v), starting 7 weeks before the administration of the compound. After 7 weeks of rearing with TAA-containing water, a vehicle (200 μL of PBS, containing 5% DMSO) or 20 mg/kg (200 μL of PBS, containing 5% DMSO) of Compound (II) was subcutaneously administered every 24 hours for a total period of 14 days. The mice were sacrificed 24 hours after the last injection.
Liver tissue samples were fixed overnight at 4° C. with Zamboni's fixative (FUJIFILM Wako Pure Chemical Corporation) or Mildform (registered trademark) 10N (FUJIFILM Wako Pure Chemical Corporation). For immunofluorescence staining, the liver tissue fixed with Zamboni's fixative was washed with PBS, and the medium was replaced with a 30% (w/v) sucrose solution. Frozen tissue was prepared by embedding the tissue in a Tissue-Tek (registered trademark) O.C.T. compound (Sakura Finetek Japan) and freezing the resultant in liquid nitrogen. Liver cryosections (8 μm) were mounted on slide glasses, rehydrated, and autoclaved in Target Retrieval Solution (lx, Dako) at 90° C. for 20 min for epitope retrieval. The sections were blocked with 0.3% BSA/PBS for 1 hour at room temperature. After washing with PBS, αSMA (Dako), CollagenI (Bio-Rad Laboratories, Inc.), Ki67 (Santa Cruz), and Hoechst33342 (Sigma-Aldrich) were each added as a first antibody, and the mixture was reacted overnight at 4° C. On the next day, the sections were washed with PBS and then reacted with Invitrogen Alexa Fluor (theromo Fisher) as a second antibody. The section specimens were hermetically sealed and observed with a fluorescence microscope (Keyence BZ-X810). The range of positive CollagenI was quantified using Ratiocollagen I=Areacollagen I/Areatotal.
as §1, with “mouse liver tissue” for “LX-2 cells”

[4] = system: primary cultured human renal fibroblasts; test: Expression of marker genes for fibrosing in primary cultured human renal fibroblasts (quantitative real time PCR); assay type: cell-based; conditions: 48 hours
Protocol: (§2) Primary cultured human renal fibroblasts (ATCC), primary cultured human lung fibroblasts (Cosmo Bio), or primary cultured human pancreatic fibroblasts (K.A.C.) were each seeded in 12-well tissue culture plates (5×10^4 cells/well) and cultured in Minimum Essential Medium (lx) (Gibco, Thermo Fisher Scientific) together with 10% FBS (Fetal Bovine Serum) and 100× antifungal antibiotic solution (Sigma-Aldrich) in a 5% CO2 humidified incubator at 37° C. After 48 hours, the cells were stimulated with dimethyl sulfoxide (DMSO), Compound (II), and/or Compound (III) (5 μM) (final concentration of DMSO was 0.02%) and co-cultured for another 48 hours. Cells that are activated by TGFβ1 (FUJIFILM Wako Pure Chemical Corporation), a fibroblast growth and activation factor, were stimulated with TGFβ1 (20 ng/ml) 72 hours after seeding, and after 48 hours, the cells were stimulated with dimethyl sulfoxide (DMSO), Compound (II), and/or Compound (III) (5 μM) (final concentration of DMSO was 0.02%) and co-cultured for another 48 hours. Thereafter, the cells were lysed using a lysis buffer (MACHEREY-NAGEL GmbH & Co. KG).
(§3) Quantitative real-time PCR analysis was performed in the same manner as in Example 5.

[5] = system: primary cultured human lung fibroblasts; test: Expression of marker genes for fibrosing in primary cultured human lung fibroblasts (quantitative real time PCR); assay type: cell-based; conditions: 48 hours
Protocol: as §2, §3

[6] = system: primary cultured human pancreatic fibroblasts; test: Expression of marker genes for fibrosing in primary cultured human pancreatic fibroblasts (quantitative real time PCR); assay type: cell-based; conditions: 48 hours
Protocol: as §2, §3

[7] = system: primary cultured human skin fibroblasts; test: Expression of marker genes for fibrosing in primary cultured human skin fibroblasts (quantitative real time PCR); assay type: cell-based; conditions: 48 hours
Protocol: Primary cultured human skin fibroblasts (Tokyo University School of Medicine) were seeded in 12-well tissue culture plates (7×10^4 cells/well) and cultured in Dulbecco's Modified Eagle's Medium (high glucose) together with 10% FBS (Fetal Bovine Serum) and 100× penicillin-streptomycin-glutamine (PSG) in a 5% CO2 humidified incubator at 37° C. After 48 hours, the cells were stimulated with dimethyl sulfoxide (DMSO), Compound (II), and Compound (III) (5 μM) (final concentration of DMSO was 0.02%) and co-cultured for another 48 hours. Cells activated with TGFβ1 (FUJIFILM Wako Pure Chemical Corporation) were stimulated with TGFβ1 (20 ng/ml) 72 hours after seeding, and after 48 hours, the cells were stimulated with dimethyl sulfoxide (DMSO), Compound (II), and Compound (III) (5 μM) (final concentration of DMSO was 0.02%) and co-cultured for another 48 hours. Thereafter, the cells were lysed using a lysis buffer (MACHEREY-NAGEL GmbH & Co. KG).
as §3

[8] = not stimulated with TGFβ1, 5 μM, FIG. 7
[9] = stimulated with TGFβ1 (20 ng/ml), 5 μM, FIG. 8
[10] = not stimulated with TGFβ1, 5 μM, FIG. 9
[11] = stimulated with TGFβ1 (20 ng/ml), 5 μM, FIG. 10
[12] = not stimulated with TGFβ1, 5 μM, FIG. 11
[13] = stimulated with TGFβ1 (20 ng/ml), 5 μM, FIG. 12
[14] = not stimulated with TGFβ1, 5 μM, FIG. 13
[15] = stimulated with TGFβ1 (20 ng/ml), 5 μM, FIG. 14

CC(C)(C)c1cc(-c2ccc(Oc3ccccc3CCC(=O)OCCCOP(=O)(O)OCC(N)C(=O)O)cc2)cc(C(C)(C)C)c1 (stereo not drawn) [Compound (II)]
expression levels of the marker genes for fibrosing (ACTA2, COL1A1, COL3A1) [1]: decreased | expression of αSMA and CollagenI (immunostaining) (LX-2 cells): suppressed | expression levels of the marker genes for fibrosing (ACTA2, COL1A1, COL3A1) [2]: decreased | positive range of CollagenI in liver tissue sections (Area collagen I/Area total) ([3]; vs vehicle, FIG. 4): small | Ki67 staining of liver tissue sections (cell proliferation capability) ([3]; vs vehicle, FIG. 5): larger area stained in red | expression of αSMA and CollagenI in liver tissue sections (immunostaining) ([3]; vs vehicle, FIG. 5): suppressed | expression levels of the marker genes for fibrosing (COL1A1, COL3A1) in liver tissue ([3]; FIG. 6): decreased | expression levels of the marker genes for fibrosing (ACTA2, COL1A1, COL3A1) [4, 8]: decreased | expression levels of the marker genes for fibrosing (ACTA2, COL1A1, COL3A1) [4, 9]: decreased | expression levels of the marker genes for fibrosing (ACTA2, COL1A1, COL3A1) [5, 10]: decreased | expression levels of the marker genes for fibrosing (ACTA2, COL1A1, COL3A1) [5, 11]: decreased | expression levels of the marker genes for fibrosing (ACTA2, COL1A1, COL3A1) [6, 12]: decreased | expression levels of the marker genes for fibrosing (ACTA2, COL1A1, COL3A1) [6, 13]: decreased | expression levels of the marker genes for fibrosing (ACTA2, COL1A1, COL3A1) [7, 14]: decreased | expression levels of the marker genes for fibrosing (ACTA2, COL1A1, COL3A1) [7, 15]: decreased

NC(COP(=O)(O)OCCCOC(=O)CCc1ccccc1Oc1ccc(-c2cc(-c3ccccc3)cc(-c3ccccc3)c2)cc1)C(=O)O (stereo not drawn) [Compound (III)]
expression levels of the marker genes for fibrosing (ACTA2, COL1A1, COL3A1) [1]: decreased | expression levels of the marker genes for fibrosing (ACTA2, COL1A1, COL3A1) [4, 8]: decreased | expression levels of the marker genes for fibrosing (ACTA2, COL1A1, COL3A1) [4, 9]: decreased | expression levels of the marker genes for fibrosing (ACTA2, COL1A1, COL3A1) [5, 10]: decreased | expression levels of the marker genes for fibrosing (ACTA2, COL1A1, COL3A1) [5, 11]: decreased | expression levels of the marker genes for fibrosing (ACTA2, COL1A1, COL3A1) [6, 12]: decreased | expression levels of the marker genes for fibrosing (ACTA2, COL1A1, COL3A1) [6, 13]: decreased | expression levels of the marker genes for fibrosing (ACTA2, COL1A1, COL3A1) [7, 14]: decreased | expression levels of the marker genes for fibrosing (ACTA2, COL1A1, COL3A1) [7, 15]: decreased
